We go through five compounds from patent US9782387B2, “Compositions and methods for treating hematological malignancies” (Tel HaShomer Medical Research Infrastructure and Services …, priority 2013, dated 2017).

For data set [1], the system named is MM.1S cells. In words: Combination XTT assay, Chou-Talalay, MM.1S. It is filed as cell-based, human. The arrangement: key: CI <1 synergism, =1 additive, >1 antagonism (Chou-Talalay). To be noted: 48 h. As for the experimental part:
(§1) Combinations of novel and/or conventional anti-MM agents may achieve higher clinical response rates than a single agent(s).
(§2) CI value <1, =1, >1 indicates synergism, additive effect, and antagonism, respectively, (n=3 independent experiments). The CI values were calculated by the Chou-Talalay method based on the median-effect equation and the classic isobologram equation [22], using compusyn computer software.
In general terms: Formazan colour is commonly taken as a measure of viable cells.

Data set [2] relates to RPMIS cells. Kind of data set: Combination XTT assay, Chou-Talalay, RPMIS. It is filed as cell-based, human. The arrangement: key: CI <1 synergism, =1 additive, >1 antagonism (Chou-Talalay). As to conditions: 48 h. On the procedure:
as §1, §2

The test system of data set [3] is human multiple myeloma (MM) cell lines. In words: Cell viability XTT assay, MM cell lines. It is filed as cell-based. To be noted: each MM cell line. As for the experimental part: The following panel of human multiple myeloma (MM) cell lines was used: RPMI-S (ATCC® CCL-155), RPMI-LR5, RPMI-MR20, MM.1S (ATCC® CRL-2974). OPM1, OPM-2, U266 ATCC® TIB-196 and CAG. The human immortalized bone marrow stromal cell (BMSC) line HS-5 was obtained from ATCC® CRL-11882. MM cell lines were grown in RPMI and HS-5 in DMEM, supplemented with 10% fetal calf serum, 2 mM L-glutamine, 100 units/mL penicillin and 100 μg/mL streptomycin (Biological Industries, Beit Haemek, Israel), and incubated in a humidified atmosphere of 5% CO2 and 95% air at 37° C.
MM cell lines were plated at a density of 2×10^4 cells per well in 96-wells and treated with different concentrations of STK405759. For patient samples, bone marrow aspirates from MM patients were collected, mononuclear cells were separated by Ficoll density gradient centrifugation and myeloma cells selected using CD138 microbeads (Miltenyi Biotec). Purified CD138^+ cells from patients were plated at a density of 2×10^4 cells per well and treated for 48 h with different concentrations of STK405759. Peripheral blood samples were processed by Ficoll density gradient centrifugation to isolate peripheral blood mononuclear cells (PBMCs). […] Cell viability was measured using XTT cell proliferation Kit (Biological Industries) according to manufacture instructions. […]

In data set [4] the test system is affinity-purified CD138+ cells from bone marrow samples of MM patients. Kind of data set: Cell viability XTT assay, primary patient MM cells. It is filed as cell-based, human. As to conditions: 2 MM patients, 48 h. As for the experimental part: (§3) MM cell lines were plated at a density of 2×10^4 cells per well in 96-wells and treated with different concentrations of STK405759. For patient samples, bone marrow aspirates from MM patients were collected, mononuclear cells were separated by Ficoll density gradient centrifugation and myeloma cells selected using CD138 microbeads (Miltenyi Biotec). Purified CD138^+ cells from patients were plated at a density of 2×10^4 cells per well and treated for 48 h with different concentrations of STK405759. Peripheral blood samples were processed by Ficoll density gradient centrifugation to isolate peripheral blood mononuclear cells (PBMCs). PBMCs were plated at 2×10^4 cells per well and exposed to different concentrations of STK405759 for 48 h. Cell viability was measured using XTT cell proliferation Kit (Biological Industries) according to manufacture instructions.

Data set [5] relates to peripheral blood mononuclear cells (PBMCs). Kind of data set: Cell viability XTT assay, PBMCs. It is filed as cell-based, human. To be noted: PBMC from the same patients and from healthy donors, 48 h. As for the experimental part:
as §3

The nature of data set [6]: Xenograft murine model, body weight and toxicity. It is filed as in vivo. As to conditions: 0.5 mg/kg i.p., during treatment. On the procedure:
Mice were monitored every 2-3 d for changes in body weight and tumor burden. Tumor volumes were measured by a caliper every alternate day and calculated using the following formula: length×width^2×0.5. Mice were sacrificed in accordance with institutional guidelines when tumors reached 1.5 cm^3 or if the mice appeared moribund, to prevent unnecessary morbidity to the mice. Following sacrifice, tumors were immediately collected and evaluated for induction of apoptosis and cell death by TdT-mediated dUTP nick end labeling (TUNEL) assay.

Data set [7] has as its system HS-5 bone marrow stromal cells. In words: CFSE/PI FACS viability in co-culture, stromal cells. As to conditions: 48 h. It is filed as cell-based, human. On the procedure:
FIGS. 2A-D are graphs showing that STK405759 overcomes the growth stimulatory effect of BMSCs. IL-6 or IGF-1 on MM cell growth. FIG. 2A-B—RPMIS cells were stained with CFSE, co-cultured with HS-5 and exposed to STK405759 (70 nM) for 48 h. The cells were contrastained with PI to distinguish live from nonviable cells using FACS analysis. The values of the fraction of nonviable (CFSE^−PI^+) HS-5 cells within the entire population of HS-5 cells (CFSE^−) cultured alone or with RPMIS cells, and the fraction of (CFSE^+PI^+) RPMIS cells within the entire population of RPMIS cells (CFSE) cultured alone or with HS-5 cells are presented as a function of the STK405759 concentrations. FIGS. 2C-D—RPMIS cells were cultured for 48 hours at the indicated concentrations of STK405759 in the presence or absence of IL-6 (5 or 10 ng/ml) or IGF-1 (10 or 30 ng/ml). Data presented are from three independent experiments and presented as means±SE.
Since BMSC trigger and maintain MM cell homing, proliferation, and drug resistance, the present inventors have assessed whether MM cell sensitivity to STK405759 is attenuated by co-culture with bone marrow stromal cells. In order to quantify viability of MM cells cultured alone or co-cultured with HS-5 bone marrow stromal cells. MM cells were stained with CFSE. […]

Data set [8] relates to RPMIS MM cells. Kind of data set: Xenograft murine model. It is filed as in vivo, SCID mice. As to conditions: 0.5 mg/kg i.p.; not reached after follow-up of 60 days; control 28 days. As for the experimental part: RPMIS cells (7×10^6 mouse in 100 μl of PBS) were injected subcutaneously in SCID mice. Mice (n=10 per group) received STK405759 (0.5 mg/kg in 0.1 ml PBS) or control vehicle (0.1 ml PBS), by intraperitoneal (i.p.) administration once a day for 5 days. FIG. 6A—Tumor diameters were measured every 2-3 days with caliper, and tumor volumes were calculated using the formula of the volume of an ellipse: ½ (length×width^2). […] FIG. 6B—Kaplan-Meier analysis of overall survival confirmed that STK405759 increased survival compared with control mice. […] FIG. 6D—Induction of apoptosis and cell death in tumors excised from vehicle or STK405759 (0.5 mg/kg) treated animals are shown by TUNEL assay. Photomicrographs show apoptotic cells (brown) using light microscopy (×20 and ×40 magnification).
Male SCID mice (6-8 week old) were maintained in accordance with Institutional Animal Care Use Committee guidelines. […]
Mice were monitored every 2-3 d for changes in body weight and tumor burden. Tumor volumes were measured by a caliper every alternate day and calculated using the following formula: length×width^2×0.5. […] Following sacrifice, tumors were immediately collected and evaluated for induction of apoptosis and cell death by TdT-mediated dUTP nick end labeling (TUNEL) assay.

Each structure is given as a SMILES string. Where only a bound is given, the exact number is not on record here.

For `CC(C)C[C@H](NC(=O)[C@H](Cc1ccccc1)NC(=O)c1cnccn1)B(O)O` [BTZ, bortezomib], the “Combination Index” value in data set [1] (STK405759 45 nM + BTZ 1 nM) is on record as 0.62 ± 0.14; in data set [1] (STK405759 45 nM + BTZ 5 nM), 0.58 ± 0.02; in data set [2] (STK405759 45 nM + BTZ 1 nM) it was 0.88 ± 0.02; in data set [2] (STK405759 45 nM + BTZ 5 nM) it was 0.78 ± 0.08.

`C[C@@H]1C[C@H]2[C@@H]3CCC4=CC(=O)C=C[C@]4(C)[C@@]3(F)[C@@H](O)C[C@]2(C)[C@@]1(O)C(=O)CO` [DEX, dexamethasone]: the “Combination Index” value in data set [1] (STK405759 45 nM + DEX 1 nM) was 0.76 ± 0.15; in data set [1] (STK405759 45 nM + DEX 5 nM) it was 0.63 ± 0.09; in data set [2] (STK405759 45 nM + DEX 1 nM), 0.76 ± 0.06; in data set [2] (STK405759 45 nM + DEX 5 nM), 0.84 ± 0.03.

For the compound `COc1cccc2c1C(=O)c1c(O)c3c(c(O)c1C2=O)C[C@@](O)(C(=O)CO)C[C@@H]3O[C@H]1C[C@H](N)[C@H](O)[C@H](C)O1` [DOXO, doxorubicin], the “Combination Index” value came to 1.30 ± 0.06 in data set [1] (STK405759 45 nM + DOXO 10 nM), 1.54 ± 0.08 in data set [1] (STK405759 45 nM + DOXO 30 nM), 1.44 ± 0.01 in data set [2] (STK405759 45 nM + DOXO 10 nM) and 1.63 ± 0.10 in data set [2] (STK405759 45 nM + DOXO 30 nM).

For the compound `Nc1cccc2c1CN(C1CCC(=O)NC1=O)C2=O` (stereo not shown) [LEN, lenalidomide], the “Combination Index” value in data set [1] (STK405759 45 nM + LEN 5 μM) is given as 0.62 ± 0.09; in data set [1] (STK405759 45 nM + LEN 25 μM), 0.58 ± 0.09; in data set [2] (STK405759 45 nM + LEN 5 μM), 0.77 ± 0.09; in data set [2] (STK405759 45 nM + LEN 25 μM) it was 0.74 ± 0.05.

Usually IC50 stands for the concentration needed to halve the response being measured. For the compound `CCCCCOC(=O)c1[nH]c2c(c1C)C(=O)CC(c1ccco1)C2` (stereo not shown) [STK405759], the half-maximal inhibitory concentration (IC50) in data set [3] is < 44 nM. Further, in data set [4], the “cytotoxic response of primary MM cells” value was “dose-dependent cytotoxic response”. The “cytotoxic effect on PBMC” value in data set [5] is given as “non responsive to the cytotoxic effect”. For the same compound, in data set [6], the “changes in weight or other signs of potential toxicity” value is on record as “No significant changes”. Moreover, the “viability of HS-5 stromal cells” value in data set [7] was “unaffected”. In addition, in data set [8], the median overall survival is given as > 60 days.
